The structures appear in SMILES notation.

Experimental findings from patent EP0857721A1, “ACRIDONE COMPOUNDS” (Eisai Co., Ltd., priority 1995, dated 1997) are described below.

For this assay, the system named is RBL-2H3 cells. In words: Inhibition of serotonin liberation from IgE-sensitized, antigen-stimulated RBL-2H3 cells ([3H]-serotonin). The format is cell-based. The settings on record: Rattus norvegicus; IgE-sensitized RBL-2H3 cells stimulated with specific antigen; [3H]-labeled serotonin. The source says:
Under the action of an antigen specific to the IgE antibody, RBL-2H3 cells, i.e., a cell line originating in rat cells, not only liberate histamine and serotonin but also produce and liberate cytokines such as TNF" serving as an inflammatory mediator and prostaglandins. In this experimental system, the effects of the compounds of the present invention of inhibiting the liberation of various mediators were examined by using serotonin as an indication.
The cells were labeled with [^3H]-labeled serotonin and, at the same time, sensitized with the IgE antibody. Next, these cells were incubated in the presence of the acridone compounds according to the present invention and then stimulated with the specific antigen. Then the serotonin liberation inhibitory activity of each acridone compound was calculated from the amount of the [^3H]-labeled serotonin thus liberated into the medium due to the above-mentioned stimulation and the amount of the [^3H]-labeled serotonin liberated into the medium by the same experimental procedure as the one described above but adding no acridone compound of the present invention.
Broadly, the IC50 is the midpoint of a concentration-inhibition curve. Turning to `COc1cccc2c1c(=O)c1ccc(C)c(C)c1n2CCCNCc1ccc(C)cc1` [Compound 88], the 50% inhibitory concentration (IC50) came out at 2 µM.
The figure for `COc1ccc2c(=O)c3ccc(C)c(C)c3n(CCCNCc3ccc(C)cc3)c2c1` [Compound 87] is 2 µM; for `Cc1ccc2c(=O)c3ccccc3n(CCCNCc3cccc(F)c3)c2c1C` [Compound 42] it is 2 µM.
Consider `Cc1ccc2c(=O)c3ccccc3n(CCCNCc3cccc(C(F)(F)F)c3)c2c1C` [Compound 38], for which the IC50 came to 2 µM.
To `Cc1ccc2c(=O)c3c(CC(=O)O)cccc3n(CCCNCc3ccc(O)cc3)c2c1C` [Compound 31] belongs 1 µM; to `Cc1ccc2c(=S)c3ccccc3n(CCCNCc3ccccc3)c2c1C` [Compound 131], 10 µM; to `Cc1ccc2c(=S)c3ccccc3n(CCCN)c2c1C` [Compound 130], 10 µM.
The figure for `Cc1ccc2c(=O)c3c(CC(=O)N(C)C)cccc3n(CCCN(C)Cc3ccccc3)c2c1C` [Compound 136] is 10 µM.
To `Cc1ccc2c(=O)c3c(CC(=O)O)cccc3n(CCCNCc3ccccc3F)c2c1C` [Compound 107] belongs 6 µM; to `Cc1ccc2c(=O)c3ccccc3n(Cc3ccccc3CN)c2c1C` [Compound 117], 10 µM.
Consider `Cc1ccc2c(=O)c3ccccc3n(CCCN(CCC(N)=O)Cc3ccccc3)c2c1C` [Compound 76], for which the IC50 amounted to 4 µM.
The figure for `Cc1ccc2c(=O)c3ccccc3n(CCCNCc3cccc(C(=O)O)c3)c2c1C` [Compound 56] is 7 µM; for `Cc1ccc2c(=O)c3c(CC(=O)O)cccc3n(CCCNCc3ccco3)c2c1C` [Compound 12] it is 0.5 µM; for `Cc1ccc(CNCCCn2c3ccccc3c(=O)c3ccc(C)c(C)c32)cc1` [Compound 62] it is 1 µM.
`Cc1ccc2c(=O)c3c(CC(=O)O)cccc3n(CCCN)c2c1C` [Compound 14]: the IC50 was 10 µM.
To `Cc1ccc2c(=O)c3ccccc3n(Cc3ccc(CNCc4ncc[nH]4)cc3)c2c1C` [Compound 126] belongs 10 µM; to `Cc1ccc2c(=O)c3ccccc3n(Cc3ccc(CN)cc3)c2c1C` [Compound 119], 4 µM.
To `Cc1ccc2c(=O)c3c(C(C)C(=O)O)cccc3n(CCCNCc3ccc(Cl)c(Cl)c3)c2c1C` (centres unmarked) [Compound 142] belongs 1 µM; to `Cc1ccc2c(=O)c3ccccc3n(CCCNCc3ccc(S(=O)(=O)N(C)C)cc3)c2c1C` [Compound 70], 8 µM.
The figure for `Cc1ccc2c(=O)c3ccccc3n(CCCNCc3cccc(Cl)c3)c2c1C` [Compound 64] is 5 µM; for `Cc1ccc2c(=O)c3ccccc3n(Cc3cccc(CNCc4ccccc4)n3)c2c1C` [Compound 128] it is 1 µM; for `Cc1ccc2c(=O)c3c(CC(=O)O)cccc3n(CCCN(CCO)Cc3ccccc3)c2c1C` [Compound 109] it is 3 µM.
Turning to `Cc1cc(CN(C)CCCn2c3ccccc3c(=O)c3ccc(C)c(C)c32)cc(C)c1O` [Compound 79], the IC50 was determined as 7 µM.
The figure for `Cc1ccc2c(=O)c3ccccc3n(CCCNCc3ccccc3C(F)(F)F)c2c1C` [Compound 61] is 1 µM; for `Cc1ccc2c(=O)c3c(CC(=O)O)cccc3n(CCCNCc3cccc(F)c3)c2c1C` [Compound 108] it is 5 µM; for `Cc1ccc2c(=O)c3ccccc3n(CCCN(CCC#N)Cc3ccccc3)c2c1C` [Compound 75] it is 3 µM.
In the case of `Cc1ccc2c(=O)c3c(C(C)C(=O)O)cccc3n(CCCN(C)Cc3ccccc3)c2c1C` (centres unmarked) [Compound 140], the IC50 worked out at 4 µM.
As to `Cc1ccc2c(=O)c3ccccc3n(CCCNCc3ccc(C(N)=O)cc3)c2c1C` [Compound 55], the IC50 worked out at 10 µM.
To `Cc1ccc(CN(C)CCCn2c3cccc(CC(=O)O)c3c(=O)c3ccc(C)c(C)c32)cc1` [Compound 95] belongs 10 µM; to `Cc1ccc2c(=O)c3ccccc3n(CCCN(CCO)Cc3ccccc3)c2c1C` [Compound 77], 1 µM; to `Cc1ccc2c(=O)c3c(CC(=O)O)cccc3n(CCCNCc3ccccc3C(F)(F)F)c2c1C` [Compound 116], 3 µM.
To `Cc1ccc(CNCCCn2c3cccc(CC(=O)O)c3c(=O)c3ccc(C)c(C)c32)c(C)c1` [Compound 26] belongs 10 µM; to `Cc1ccc2c(=O)c3c(CC(=O)O)cccc3n(CCCNCc3cccc(Cl)c3)c2c1C` [Compound 106], 10 µM.
To `Cc1ccc2c(=O)c3ccccc3n(CCCNCc3ccc(Cl)cc3Cl)c2c1C` [Compound 67] belongs 1 µM; to `Cc1ccc(CN(C)CCCn2c3cccc(CC(=O)O)c3c(=O)c3ccc(C)c(C)c32)c(C)c1` [Compound 27], 10 µM.
`COC(=O)CCc1cccc2c1c(=O)c1ccc(C)c(C)c1n2CCCNCc1ccccc1` [Compound 22]: the IC50 was 3 µM.
To `Cc1ccc2c(=O)c3c(CC(=O)O)cccc3n(CCCNCc3ccc(Cl)cc3O)c2c1C` [Compound 30] belongs 2 µM; to `CNS(=O)(=O)c1ccc(CNCCCn2c3ccccc3c(=O)c3ccc(C)c(C)c32)cc1` [Compound 69], 7 µM; to `Cc1ccc2c(=O)c3ccccc3n(CCCNCc3cccc(C#N)c3)c2c1C` [Compound 35], 3 µM.
Take `Cc1ccc2c(=O)c3ccccc3n(Cc3ccccc3CNCc3ncc[nH]3)c2c1C` [Compound 127]: the IC50 was 5 µM.
The figure for `Cc1ccc2c(=O)c3ccccc3n(Cc3ccc(CNCc4ccccc4)o3)c2c1C` [Compound 133] is 2 µM; for `Cc1ccc2c(=O)c3c(CC(=O)O)cccc3n(CCCNCc3ccc(Cl)c(O)c3Cl)c2c1C` [Compound 24] it is 8 µM; for `Cc1ccc(CNCCCn2c3cc(F)ccc3c(=O)c3ccc(C)c(C)c32)cc1` [Compound 86] it is 3 µM.
To `Cc1ccc2c(=O)c3ccccc3n(CC=CCNCc3ccccc3)c2c1C` [Compound 129] belongs 8 µM; to `Cc1ccc2c(=O)c3c(C(C)CC(=O)O)cccc3n(CCCNCc3ccccc3)c2c1C` (centres unmarked) [Compound 8], 8 µM; to `Cc1ccc2c(=O)c3ccccc3n(CCCNCc3ccc(F)cc3)c2c1C` [Compound 43], 2 µM.
The figure for `Cc1ccc2c(=O)c3ccccc3n(CCCNCc3ccc(C#N)cc3)c2c1C` [Compound 36] is 2 µM; for `Cc1ccc2c(=O)c3c(CC(=O)O)cccc3n(CCCNCc3ccc(F)cc3F)c2c1C` [Compound 100] it is 10 µM.
For the molecule `COC(=O)c1ccc(CNCCCn2c3ccccc3c(=O)c3ccc(C)c(C)c32)cc1` [Compound 50], the half-inhibitory concentration (IC50) worked out at 4 µM.
Turning to `Cc1cc(CNCCCn2c3ccccc3c(=O)c3ccc(C)c(C)c32)ccc1O` [Compound 46], the 50% inhibitory concentration (IC50) was found to be 4 µM.
For the molecule `Cc1ccc2c(=O)c3c(CC(=O)O)cccc3n(CCCNCc3cc4ccccc4o3)c2c1C` [Compound 11], the IC50 turned out to be 0.5 µM.
With `CCOC(=O)Cc1cccc2c1c(=O)c1ccc(C)c(C)c1n2CCCNCc1ccccc1` [Compound 21], the IC50 turned out to be 8 µM.
To `Cc1ccc2c(=O)c3c(CC(=O)O)cccc3n(CCCNCc3ccc(F)cc3)c2c1C` [Compound 104] belongs 5 µM.
Take `Cc1ccc2c(=O)c3ccccc3n(CCCNCc3cccc(Br)c3)c2c1C` [Compound 45]: the IC50 amounted to 2 µM.
To `COc1cccc(NCCCn2c3ccccc3c(=O)c3ccc(C)c(C)c32)c1` [Compound 81] belongs 10 µM; to `Cc1ccc2c(=O)c3c(CC(=O)O)cccc3n(CCCNCc3ccc(Cl)c(Cl)c3O)c2c1C` [Compound 23], 8 µM; to `Cc1ccc2c(=O)c3ccccc3n(CCCNCc3ccccc3Br)c2c1C` [Compound 44], 5 µM.
The figure for `Cc1ccc2c(=O)c3ccccc3n(Cc3ccc(CNCc4ccco4)cc3)c2c1C` [Compound 125] is 10 µM; for `Cc1ccc2c(=O)c3ccccc3n(CCCNCc3ccccc3F)c2c1C` [Compound 41] it is 3 µM.
The figure for `Cc1ccc2c(=O)c3ccccc3n(Cc3cccc(CN)n3)c2c1C` [Compound 120] is 8 µM; for `Cc1ccc2c(=O)c3ccccc3n(CCCNCc3c(Cl)cccc3Cl)c2c1C` [Compound 48] it is 1 µM.
In the case of `Cc1cccc(CNCCCn2c3ccccc3c(=O)c3ccc(C)c(C)c32)c1` [Compound 33], the half-inhibitory concentration (IC50) amounted to 2 µM.
Take `Cc1ccc2c(=O)c3ccccc3n(CCCN(C3CCCCC3)C3CCCCC3)c2c1C` [Compound 83]: the IC50 turned out to be 5 µM.
`Cc1ccc2c(=O)c3c(C(C)CC(=O)O)cccc3n(CCCN)c2c1C` (centres unmarked) [Compound 18]: the IC50 amounted to 10 µM.
For `Cc1ccc2c(=O)c3c(CC(=O)O)cccc3n(CCCNCc3ccc(C(F)(F)F)cc3C(F)(F)F)c2c1C` [Compound 29], the IC50 came to 8 µM.
`Cc1ccc2c(=O)c3ccccc3n(CCCNCc3ccc(Br)cc3)c2c1C` [Compound 66]: the half-inhibitory concentration (IC50) stood at 5 µM.
Take `Cc1ccc2c(=O)c3c(CC(=O)O)cccc3n(CCCN(C)Cc3cccc4ccccc34)c2c1C` [Compound 97]: the IC50 was determined as 10 µM.
For the molecule `COc1ccc(CNCCCn2c3cccc(CC(=O)O)c3c(=O)c3ccc(C)c(C)c32)c(OC)c1` [Compound 99], the IC50 stood at 10 µM.
The figure for `Cc1ccc2c(=O)c3c(CCC(=O)O)cccc3n(CCCNCc3ccccc3)c2c1C` [Compound 5] is 3 µM; for `Cc1ccc2c(=O)c3c(CC(=O)O)cccc3n(CCCN(C)CCc3ccccc3)c2c1C` [Compound 113] it is 8 µM; for `Cc1cc(CNCCCn2c3ccccc3c(=O)c3ccc(C)c(C)c32)cc(C)c1O` [Compound 47] it is 7 µM.
